Experimental data published in ChEMBL document CHEMBL5523679, “Discovery of 1,2,3-triazole incorporated indole-piperazines as potent antitubercular agents: Design, synthesis, in vitro biological evaluation, molecular docking and ADME studies” (Bioorg Med Chem, 2024).

Key:
Assay type in all cases: functional
[1] = tested on: Mycobacterium tuberculosis; assay: Antimycobacterial activity against Mycobacterium tuberculosis H37Rv assessed as bacterial growth inhibition by microplate Alamar blue assay
[2] = tested on: Escherichia coli; assay: Antibacterial activity against Escherichia coli assessed as inhibition zone at 75 ug/ml by diffusion method; conditions: read-out: IZ
[3] = tested on: Escherichia coli; assay: Antibacterial activity against Escherichia coli assessed as inhibition zone at 50 ug/ml by diffusion method; conditions: read-out: IZ
[4] = tested on: Escherichia coli; assay: Antibacterial activity against Escherichia coli assessed as inhibition zone at 25 ug/ml by diffusion method; conditions: read-out: IZ
[5] = tested on: Staphylococcus aureus; assay: Antibacterial activity against Staphylococcus aureus assessed as inhibition zone at 75 ug/ml by diffusion method; conditions: read-out: IZ
[6] = tested on: Staphylococcus aureus; assay: Antibacterial activity against Staphylococcus aureus assessed as inhibition zone at 50 ug/ml by diffusion method; conditions: read-out: IZ
[7] = tested on: Staphylococcus aureus; assay: Antibacterial activity against Staphylococcus aureus assessed as inhibition zone at 25 ug/ml by diffusion method; conditions: read-out: IZ
[8] = tested on: Pseudomonas aeruginosa; assay: Antibacterial activity against Pseudomonas aeruginosa assessed as inhibition zone at 75 ug/ml by diffusion method; conditions: read-out: IZ
[9] = tested on: Pseudomonas aeruginosa; assay: Antibacterial activity against Pseudomonas aeruginosa assessed as inhibition zone at 50 ug/ml by diffusion method; conditions: read-out: IZ
[10] = tested on: Pseudomonas aeruginosa; assay: Antibacterial activity against Pseudomonas aeruginosa assessed as inhibition zone at 25 ug/ml by diffusion method; conditions: read-out: IZ

SMILES	MIC [1] [µM]	zone of inhibition at 75 µg/mL [2] [mm]	zone of inhibition at 50 µg/mL [3] [mm]	zone of inhibition at 25 µg/mL [4] [mm]	zone of inhibition at 75 µg/mL [5] [mm]	zone of inhibition at 50 µg/mL [6] [mm]	zone of inhibition at 25 µg/mL [7] [mm]	zone of inhibition at 75 µg/mL [8] [mm]	zone of inhibition at 50 µg/mL [9] [mm]	zone of inhibition at 25 µg/mL [10] [mm]
O=C(CCc1c[nH]c2ccccc12)N1CCN(S(=O)(=O)c2ccccc2)CC1	> 120	15	12	10	20	15	12	15	10	
O=C(CCc1c[nH]c2ccccc12)N1CCN(C(=O)c2ccc(Cl)cc2)CC1	63.1	12	10		20	15	10	12	10	
O=C(Cc1c[nH]c2ccccc12)N1CCN(C(=O)c2ccc(Cl)cc2)CC1	65.5	12	10		20	15	13	15	10	
O=C(O)c1cn(C2CC2)c2cc(N3CCNCC3)c(F)cc2c1=O [CIPROFLOXACIN]		32	27		26	21	18	21	18	15
O=C(Cc1c[nH]c2ccccc12)N1CCN(C(=O)c2ccccc2)CC1	> 120	12	9	6	15	12	10	13	9	
O=C(Cc1c[nH]c2ccccc12)N1CCN(S(=O)(=O)c2ccc(Cl)cc2)CC1	59.8	11	9	6	15	12	10	13	10	
O=C(Cc1cn(Cc2ccc(F)cc2)c2ccccc12)N1CCN(S(=O)(=O)c2ccccc2)CC1	50.8	15	13		20	18	15	18	15	10
O=C(CCc1cn(Cc2ccc(F)cc2)c2ccccc12)N1CCN(S(=O)(=O)c2ccc(Cl)cc2)CC1	23.1	18	15		23	18	15	17	13	
O=C(CCc1cn(Cc2cn(Cc3ccc(F)cc3)nn2)c2ccccc12)N1CCN(C(=O)c2ccccc2)CC1	22.7	18	15		20	10	13	12	10	
O=C(CCc1cn(Cc2cn(Cc3ccc(F)cc3)nn2)c2ccccc12)N1CCN(S(=O)(=O)c2ccc([N+](=O)[O-])cc2)CC1	39.6	20	18	15	20	12	6	12	10	
O=C(CCc1cn(Cc2cn(Cc3ccc(F)cc3)nn2)c2ccccc12)N1CCN(S(=O)(=O)c2ccccc2C(F)(F)F)CC1	38.2	20	22	15	20	12	10	12	10	
O=C(CCc1c[nH]c2ccccc12)N1CCN(C(=O)c2ccc(F)cc2)CC1	65.9	18	15		20	15	13	13	10	
Cc1ccc(C(=O)N2CCN(C(=O)CCc3c[nH]c4ccccc34)CC2)cc1	66.6	15	13		15	13	10	15	10	
O=C(CCc1cn(Cc2ccc(F)cc2)c2ccccc12)N1CCN(C(=O)c2ccccc2)CC1	53.2	15	13		23	18	15	13	10	
O=C(CCc1cn(Cc2ccc(F)cc2)c2ccccc12)N1CCN(S(=O)(=O)c2ccc(F)cc2)CC1	23.8	18	14		23	18	15	12	10	
COc1ccc(S(=O)(=O)N2CCN(C(=O)CCc3cn(Cc4cn(Cc5ccc(F)cc5)nn4)c4ccccc34)CC2)cc1	20.3	18	15		18	15	10	13	10	
O=C(Cc1cn(Cc2ccc(F)cc2)c2ccccc12)N1CCN(C(=O)c2ccc(Cl)cc2)CC1	25.5	15	13		23	18	13	13	10	
O=C(CCc1cn(Cc2cn(Cc3ccc(F)cc3)nn2)c2ccccc12)N1CCN(C(=O)c2ccc([N+](=O)[O-])cc2)CC1	21	20	19	15	20	13	10	13		
O=C(Cc1c[nH]c2ccccc12)N1CCN(S(=O)(=O)c2ccc(F)cc2)CC1	> 120	18	15		20	15	13	13	10	
